Measurements reported in paper PMC5011961, “In vitro antimicrobial activities of animal-used quinoxaline 1,4-di-N-oxides against mycobacteria, mycoplasma and fungi” (BMC Veterinary Research, 2016).
In brackets after ≈: the same amount, converted by molar mass. Like-named read-outs stand apart in the source and are kept apart here.

How the values were obtained:
DF-1 cells = assay: Cytotoxicity assay (MTT); conditions: for TC50: DF-1, 72 h, MTT, mean ± SD, n = 4; for MNTC: DF-1, maximum non-cytotoxic concentration (90 % cell viability)
Marc-145 cells = assay: Cytotoxicity assay (MTT); conditions: for TC50: Marc-145, 72 h, MTT, mean ± SD, n = 4; for MNTC: Marc-145, maximum non-cytotoxic concentration (90 % cell viability)
PPV = assay: Antiviral assay (CPE/MTT; adsorption inhibition, infection inhibition, virucidal); format: cell-based, porcine parvovirus; design: key to IC50: “--” represent not detected owing to the low inhibition ratio; conditions: for IC50: PPV, mean±SD of four experiments
PK-15 cells = assay: Cytotoxicity assay (MTT); conditions: for TC50: PK-15, 72 h, MTT, mean ± SD, n = 4; for MNTC: PK-15, maximum non-cytotoxic concentration (90 % cell viability)
IBDV = assay: Antiviral assay (CPE/MTT; adsorption inhibition, infection inhibition, virucidal); format: cell-based, infectious bursal disease virus; design: key to IC50: “--” represent not detected owing to the low inhibition ratio; conditions: for IC50: IBDV, mean±SD of four experiments
PRRSV = assay: as above; format: cell-based, porcine reproductive and respiratory syndrome virus; design: key to IC50: “--”represent not detected owing to the low inhibition ratio; conditions: for IC50: PRRSV, mean±SD of four experiments
M. gallisepticum = assay: Antimycoplasma assay, MIC in microtiter plates; conditions: Mycoplasmoides gallisepticum
Method: Briefly, 96-well microtiter Sensititre plates containing stabilized and freeze-dried antimicrobials were used. Three wells on each plate were set as antimicrobial free growth control. Freshly thawed mycoplasma isolates with known titers were diluted in liquid medium until the number of organisms reached 10^4 color changing units/mL. 50 μL of the diluted culture was transferred into each well of the Sensititre plates. […] The plates were sealed using an adhesive foil and incubated at 36 °C for 14 days. The growth of M. hyopneumoniae was observed daily when the color of the medium changed from red to yellow (phenol red indicator), and the initial and final MICs were recorded.

M. bovis ATCC 19210 = assay: microbe, parasite or virus in culture; format: cell-based, Mycobacterium bovis
[1] = system: M. tuberculosis H37Rv ATCC 27294; assay: Microdilution alamar blue assay (MABA); format: cell-based, Mycobacterium tuberculosis
[2] = M. gallisepticum BG44T (10^4ccu/mL)
[3] = M. gallisepticum PG31 (10^8 ccu/mL)
[4] = Mycobacterium tuberculosis variant bovis, ATCC19210
[5] = Mycobacterium tuberculosis, read-out: MIC
[6] = in words, infection inhibition, virucidal and adsorption inhibition assays

| Compound | TC50 (DF-1 cells) | MNTC (DF-1 cells) | TC50 (Marc-145 cells) | MNTC (Marc-145 cells) | IC50 (PPV; Inactivation) | IC50 (PPV; Prevention) | IC50 (PPV; Treatment) | TC50 (PK-15 cells) | MNTC (PK-15 cells) | IC50 (IBDV; Inactivation) | IC50 (IBDV; Prevention) | IC50 (IBDV; Treatment) | IC50 (PRRSV; Inactivation) | IC50 (PRRSV; Prevention) | IC50 (PRRSV; Treatment) | also measured |
| --- | --- | --- | --- | --- | --- | --- | --- | --- | --- | --- | --- | --- | --- | --- | --- | --- |
| Cc1c(C(C)O)nc2ccccc2[n+]1[O-] (stereo not drawn) [M4, carbonyl reduction N1-deoxy mequindox] | 37.75 ± 2.68 µg/mL (≈ 185 µM) | 1.0 µg/mL | 128.62 ± 2.67 µg/mL (≈ 630 µM) | 3.9 µg/mL | -- | -- | -- | 40.81 ± 1.27 µg/mL (≈ 200 µM) | 3.9 µg/mL | -- | -- | -- | -- | -- | -- |  |
| CN1C[C@@H]2C[C@H]1CN2c1cc2c(cc1F)c(=O)c(C(=O)O)cn2C1CC1 [Danofloxacin, danofloxacin] |  |  |  |  |  |  |  |  |  |  |  |  |  |  |  | MIC (M. gallisepticum; [2]): 0.05 µg/mL (≈ 0.14 µM); MIC (M. gallisepticum; [3]): 0.05 µg/mL (≈ 0.14 µM) |
| N#CCC(=O)N/N=C/c1c[n+]([O-])c2ccccc2n1 [Cy10, N1-deoxy cyadox] | 49.2 ± 1.93 µg/mL (≈ 193 µM) | 2.0 µg/mL | 33.62 ± 1.85 µg/mL (≈ 132 µM) | 2.0 µg/mL | -- | -- | -- | 25.27 ± 1.55 µg/mL (≈ 99 µM) | 2.0 µg/mL | -- | -- | -- | -- | -- | -- |  |
| N#CCC(=O)N/N=C/c1cnc2ccccc2[n+]1[O-] [Cy2, N4-deoxy cyadox] | 35.48 ± 2.87 µg/mL (≈ 139 µM) | 1.0 µg/mL | 96.55 ± 3.12 µg/mL (≈ 378 µM) | 2.0 µg/mL | -- | -- | -- | 51.73 ± 2.96 µg/mL (≈ 203 µM) | 2.0 µg/mL | -- | -- | -- | -- | -- | -- |  |
| CN(C)[C@@H]1C(O)=C(C(N)=O)C(=O)[C@@]2(O)C(O)=C3C(=O)c4c(O)cccc4[C@@](C)(O)[C@H]3C[C@@H]12 [Tetracycline, tetracycline] |  |  |  |  |  |  |  |  |  |  |  |  |  |  |  | MIC (M. gallisepticum; [2]): 0.4 µg/mL (≈ 0.9 µM); MIC (M. gallisepticum; [3]): 0.8 µg/mL (≈ 1.8 µM) |
| CO[C@@H]1[C@@H](O[C@@H]2O[C@H](C)[C@@H](O[C@H]3C[C@@](C)(O)[C@@H](OC(=O)CC(C)C)[C@H](C)O3)[C@H](N(C)C)[C@H]2O)[C@@H](CC=O)C[C@@H](C)[C@@H](O)/C=C/C=C/C[C@@H](C)OC(=O)C[C@H]1O [Kitasamycin, kitasamycin] |  |  |  |  |  |  |  |  |  |  |  |  |  |  |  | MIC (M. gallisepticum; [2]): 0.05 µg/mL (≈ 0.0636 µM); MIC (M. gallisepticum; [3]): 0.05 µg/mL (≈ 0.0636 µM) |
| N#CCC(=O)N/N=C/c1cnc2ccccc2n1 [Cy1, bi-deoxy Cyadox] | 32.97 ± 2.35 µg/mL (≈ 138 µM) | 2.0 µg/mL | 37.83 ± 1.67 µg/mL (≈ 158 µM) | 3.9 µg/mL | -- | -- | -- | 23.40 ± 2.14 µg/mL (≈ 97.8 µM) | 2.0 µg/mL | -- | -- | -- | -- | -- | -- |  |
| Cc1nc2ccccc2nc1C(C)O (stereo not drawn) [M5, carbonyl reduction bi-deoxy mequindox] | 38.2 ± 2.09 µg/mL (≈ 203 µM) | 2.0 µg/mL | 89.66 ± 2.14 µg/mL (≈ 476 µM) | 2.0 µg/mL | -- | -- | -- | 40.41 ± 3.21 µg/mL (≈ 215 µM) | 2.0 µg/mL | -- | -- | -- | -- | -- | -- |  |
| CC[C@@H](CO)NCCN[C@@H](CC)CO [Ethambutol, ethambutol] |  |  |  |  |  |  |  |  |  |  |  |  |  |  |  | MIC (M. bovis ATCC 19210; [4]): 0.025 µg/mL (≈ 0.122 µM); MIC [1, 5]: 0.025 µg/mL (≈ 0.122 µM) |
| NCC[C@H](O)C(=O)N[C@@H]1C[C@H](N)[C@@H](O[C@H]2O[C@H](CN)[C@@H](O)[C@H](O)[C@H]2O)[C@H](O)[C@H]1O[C@H]1O[C@H](CO)[C@@H](O)[C@H](N)[C@H]1O [Amikacin] |  |  |  |  |  |  |  |  |  |  |  |  |  |  |  | MIC (M. bovis ATCC 19210; [4]): 1.6 µg/mL (≈ 2.73 µM); MIC [1, 5]: 3.2 µg/mL (≈ 5.46 µM) |
| [H]/N=C(/N)N[C@H]1[C@H](O)[C@@H](O)[C@H](O[C@@H]2O[C@@H](C)[C@](O)(C=O)[C@H]2O[C@@H]2O[C@@H](CO)[C@H](O)[C@@H](O)[C@@H]2NC)[C@@H](N/C(N)=N\[H])[C@@H]1O [Streptomycin, streptomycin] |  |  |  |  |  |  |  |  |  |  |  |  |  |  |  | MIC (M. bovis ATCC 19210; [4]): 0.013 µg/mL (≈ 0.0224 µM); MIC [1, 5]: 0.025 µg/mL (≈ 0.043 µM) |
| NC[C@H]1O[C@H](O[C@H]2[C@H](O)[C@@H](O[C@H]3O[C@H](CO)[C@@H](O)[C@H](N)[C@H]3O)[C@H](N)C[C@@H]2N)[C@H](O)[C@@H](O)[C@@H]1O [Kanamycin] |  |  |  |  |  |  |  |  |  |  |  |  |  |  |  | MIC (M. bovis ATCC 19210; M. bovis ATCC 19210): 0.2 µg/mL (≈ 0.413 µM); MIC [1]: 0.2 µg/mL (≈ 0.413 µM) |
| NC(=O)c1cnccn1 [Pyrazinamide, pyrazinamide] |  |  |  |  |  |  |  |  |  |  |  |  |  |  |  | MIC (M. bovis ATCC 19210; [4]): 0.8 µg/mL (≈ 6.5 µM); MIC [1, 5]: 0.8 µg/mL (≈ 6.5 µM) |
| C[C@H]1c2cccc(O)c2C(=O)C2=C(O)[C@]3(O)C(=O)C(C(N)=O)=C(O)[C@@H](N(C)C)[C@@H]3[C@@H](O)[C@@H]21 [Doxycycline, doxycycline] |  |  |  |  |  |  |  |  |  |  |  |  |  |  |  | MIC (M. gallisepticum; [2]): 0.1 µg/mL (≈ 0.225 µM); MIC (M. gallisepticum; [3]): 0.2 µg/mL (≈ 0.45 µM) |
| CC(=O)c1nc2ccccc2nc1C [M1, bi-deoxy Mequindox] | 54.8 ± 1.93 µg/mL (≈ 294 µM) | 1.0 µg/mL | 70.77 ± 1.57 µg/mL (≈ 380 µM) | 1.0 µg/mL | -- | -- | -- | 72.90 ± 2.66 µg/mL (≈ 391 µM) | 2.0 µg/mL | -- | -- | -- | -- | -- | -- |  |
| NC(=O)c1ncn([C@@H]2O[C@H](CO)[C@@H](O)[C@H]2O)n1 [Ribavirin, ribavirin] | 67.42 ± 2.58 µg/mL (≈ 276 µM) | 4.0 µg/mL | 75.49 ± 2.54 µg/mL (≈ 309 µM) | 8.6 µg/mL |  |  |  |  |  |  |  |  |  |  |  | IC50 (PPV; Porcine parvovirus, Inactivation, read-out: IC50): 0.85 ± 0.17 µg/mL; IC50 (PPV; Porcine parvovirus, Prevention, read-out: IC50): 0.68 ± 0.15 µg/mL; IC50 (PPV; Porcine parvovirus, Treatment, read-out: IC50): 0.49 ± 0.07 µg/mL; effectiveness against PPV in vitro (PPV; [6]): good inhibitory activity; IC50 (IBDV; Infectious bursal disease virus, Inactivation, read-out: IC50): 1.18 ± 0.21 µg/mL; IC50 (IBDV; Infectious bursal disease virus, Prevention, read-out: IC50): 0.87 ± 0.18 µg/mL; IC50 (IBDV; Infectious bursal disease virus, Treatment, read-out: IC50): 0.58 ± 0.12 µg/mL; effectiveness against IBDV in vitro (IBDV; [6]): good inhibitory activity; IC50 (PRRSV; Porcine reproductive and respiratory syndrome virus, Inactivation, read-out: IC50): 6.29 ± 0.38 µg/mL; IC50 (PRRSV; Porcine reproductive and respiratory syndrome virus, Prevention, read-out: IC50): 9.58 ± 0.56 µg/mL; IC50 (PRRSV; Porcine reproductive and respiratory syndrome virus, Treatment, read-out: IC50): 4.64 ± 0.24 µg/mL; effectiveness against PRRSV in vitro (PRRSV; [6]): good inhibitory activity |
| CCC[C@@H]1C[C@@H](C(=O)N[C@@H]([C@H]2O[C@H](SC)[C@H](O)[C@@H](O)[C@H]2O)[C@@H](C)O)N(C)C1 [Lincomycin, lincomycin] |  |  |  |  |  |  |  |  |  |  |  |  |  |  |  | MIC (M. gallisepticum; [2]): 8 µg/mL (≈ 19.7 µM); MIC (M. gallisepticum; [3]): 8 µg/mL (≈ 19.7 µM) |
| Cc1c(C(C)O)[n+]([O-])c2ccccc2[n+]1[O-] (stereo not drawn) [M6, carbonyl reduction mequindox] | 41.26 ± 1.27 µg/mL (≈ 187 µM) | 2.0 µg/mL | 89.82 ± 1.57 µg/mL (≈ 408 µM) | 2.0 µg/mL | -- | -- | -- | 78.82 ± 3.57 µg/mL (≈ 358 µM) | 2.0 µg/mL | -- | -- | -- | -- | -- | -- |  |
